One test concerns permeabilized HepG2. As to the kind of experiment: Calcium retention capacity (CRC) assay in permeabilized HepG2. Conditions: Homo sapiens. The class given is cell-based.
The target in a further test is Human CypA (Homo sapiens (Human), UniProt P62937). Briefly: Cyclophilin peptidyl-prolyl isomerase functional assay (PPIase), CypA. The class given is biochemical. The settings on record: human recombinant enzyme, 10° C.; read-out: Inhibition (Ki, nM) Human CypA.
The next test has as its target Human CypD (Homo sapiens (Human), UniProt P30405). As to the kind of experiment: Cyclophilin peptidyl-prolyl isomerase functional assay (PPIase), CypD. Conditions: human recombinant enzyme, 10° C.; read-out: Inhibition (Ki, nM) Human CypD. The class given is biochemical.
Test [1] has as its target recombinant Calcineurin (CaN) (Homo sapiens (Human), UniProt P62937+P63098+Q08209). As to the kind of experiment: Calcineurin phosphatase inhibition assay with cyclophilin A. The test is classed as biochemical. Conditions: RII phosphopeptide substrate, read-out: CaN Inhibition (IC50, nM) + CypA.
Procedure: (§1) The compounds were supplied as a dry powder or oils and made up as a 10 mM stock solution in 100% DMSO. Subsequent dilutions were made in 100% DMSO for use in all assays.
(§2) Calcineurin Phosphatase Inhibition Assay with and without Cyclophilin A
(§3) This colorimetric 96 well assay is designed for inhibitor screening of recombinant Calcineurin (CaN). […] In a 96-well plate, two dilution series were prepared, one with the cyclophilin A enzyme (7-point) and another without (4-point). An assay buffer/calcineurin/calmodulin master mix was added followed by the phosphopeptide substrate (RII). After incubation at 30° C. the reaction was stopped by the addition of malachite green/molybdate reagent. The coloured complex formed with liberated phosphate was quantified by reading the absorbance at 620 nm. The blank corrected data was plotted against inhibitor concentration to determine an IC50 value.
The target of test [2] is recombinant Calcineurin (CaN) (Homo sapiens (Human), UniProt P63098+Q08209). As to the kind of experiment: Calcineurin phosphatase inhibition assay without cyclophilin A. The test is classed as biochemical. Conditions: RII phosphopeptide substrate, read-out: CaN Inhibition (IC50, nM) − CypA.
Procedure: as §1, §2, §3
The mark [3] stands for this setting: permeabilized HepG2, area under the curve, read-out: Calcium Retention Capacity EC50.

Molecules are shown by their SMILES. Where two headings read alike, the source gives them in different places. Starred links: 1 amine or outer side, 2 acyl side, 3 side chain; linkers in the order of their positions; H or OH if unused. Non-standard residues stand in square brackets, D forms with d. Residues, ends and D or L forms follow the SMILES beside them. ξ: configuration not given here. NMeBmt(3-oxo) = C/C=C/C[C@@H](C)C(=O)[C@H](NC)C(=O)O; MeBmt = C/C=C/C[C@@H](C)[C@@H](O)[C@H](NC)C(=O)O; ξThr(3S) = C[C@H](O[*:3])C(N[*:1])C(=O)[*:2]; X1 = CN([C@H](OCCN1CCOCC1)C(=O)[*:2])[*:1]; X2 = CN(C)CCO[C@H](C(=O)[*:2])N(C)[*:1]; NMeL = CN[C@@H](CC(C)C)C(=O)O; NMeV = CN[C@H](C(=O)O)C(C)C; Nva = CCC[C@H](N)C(=O)O

For twelve compounds, EC50, Ki and IC50 results are on record in patent US12522634B2, “Cyclophilin inhibitors and uses thereof” (Farsight Medical Technology (Shanghai) Co., Ltd., priority 2020, dated 2026).

One may read the EC50 as the concentration needed to bring the measured effect to its halfway point. What is called Ki is a dissociation constant, usually derived from enzyme kinetics or from competition with a known ligand. For orientation: IC50 means the concentration that gives 50% inhibition.

Sequence of Human CypD (P30405 30-207): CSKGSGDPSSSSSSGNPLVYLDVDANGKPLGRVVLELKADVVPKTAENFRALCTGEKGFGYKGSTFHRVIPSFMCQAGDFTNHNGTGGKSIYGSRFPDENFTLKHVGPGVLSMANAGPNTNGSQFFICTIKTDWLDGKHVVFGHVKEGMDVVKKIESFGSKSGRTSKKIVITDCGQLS
Procedure for Human CypA: as §1
(§4) Measurements were performed using an Agilent 8453 spectrophotometer. Assay buffer was cooled to 10° C. (with stirring) in a precision glass cuvette and inhibitor was added from a DMSO stock solution to afford a final concentration of <1% DMSO. A blank spectrum was obtained and then enzyme and substrate were added and the change in absorbance measured over 5 min. A first order rate was fitted to the absorbance data to obtain a rate constant (first 10 to 15 s were eliminated due to mixing). The catalytic rate was calculated from the enzymatic rate minus the background rate. The enzymatic rate constant, determined in duplicate at each inhibitor concentration, was plotted against inhibitor concentration and a non-linear fit by SigmaPlot generated a Ki.
Procedure for Human CypD: as §1, §4
Procedure for permeabilized HepG2: Calcium Retention Capacity (CRC) Assay in Permeabilized HepG2
HepG2 cells were permeabilised with 100 μM digitonin for 10 min in ice cold buffer containing 1 mM EGTA. Following two wash steps to remove the digitonin, the cells were plated into 96 well black and clear plates at 1e^6 cell per well in 180 μL assay buffer containing 0.5 μM Calcium Green 5N. Compounds dilutions were made in DMSO to 1000-fold the final concentration, diluted 1:100 in assay buffer and added to the assay as 20 μL per well. The assay buffer contained 5 mM glutamate and 2.5 mM malate. The cell plate was immediately run on the FLIPR Tetra™ which added 5 μL of 200 μM (5 μM) calcium chloride every 5 minutes whilst reading the plate every 3 seconds. The area under the curve at each concentration of compound was calculated. EC50 values were calculated.
The assay as described above measures the loss of inhibition based on the release of calcium, which is determined by increased intensity of fluorescence reporting of the calcium-binding dye used in the assay.

In the case of `C/C=C/C[C@@H](C)[C@@H](O)[C@H]1C(=O)N[C@@H](CC)C(=O)N(C)[C@H](OCCN(C)C)C(=O)N(C)[C@@H](CC(C)C)C(=O)N[C@@H](C(C)C)C(=O)N(C)[C@@H](CC(C)C)C(=O)N[C@@H](C)C(=O)N[C@H](C)C(=O)N(C)[C@@H](CC(C)C)C(=O)N(C)[C@@H](CC(C)C)C(=O)N(C)[C@@H](C(C)C)C(=O)N1C` [Compound 1, reference compound], the EC50 with permeabilized HepG2 (HepG2, read-out: Calcium Retention Capacity EC50 (nM)) was found to be 916 nM.

Regarding `C/C=C/C[C@@H](C)[C@@H](O)[C@H]1C(=O)NC([C@H](C)O)C(=O)N(C)[C@H](OCCN(C)C)C(=O)N(C)[C@@H](CC(C)C)C(=O)N[C@@H](C(C)C)C(=O)N(C)[C@@H](CC(C)C)C(=O)N[C@@H](C)C(=O)N[C@H](C)C(=O)N(C)[C@@H](CC(C)C)C(=O)N(C)[C@@H](CC(C)C)C(=O)N(C)[C@@H](C(C)C)C(=O)N1C` (stereo partly drawn) [Compound 2] (cyclo(A[dA][NMeL][NMeL][NMeV][MeBmt][ξThr(3S)][X2][NMeL]V[NMeL])), the values for the Ki on Human CypA and at Human CypD were 50 nM and 78 nM, respectively. The IC50 was 5000 nM in test [1] and > 10000 nM in test [2]. Moreover, the EC50 in the test with permeabilized HepG2 (setting [3]) is > 10000 nM.

Turning to `C/C=C/C[C@@H](C)[C@@H](O)[C@H]1C(=O)N[C@@H](C(C)C)C(=O)N(C)[C@H](OCCN(C)C)C(=O)N(C)[C@@H](CC(C)C)C(=O)N[C@@H](C(C)C)C(=O)N(C)[C@@H](CC(C)C)C(=O)N[C@@H](C)C(=O)N[C@H](C)C(=O)N(C)[C@@H](CC(C)C)C(=O)N(C)[C@@H](CC(C)C)C(=O)N(C)[C@@H](C(C)C)C(=O)N1C` [Compound 3] (cyclo(A[dA][NMeL][NMeL][NMeV][MeBmt]V[X2][NMeL]V[NMeL])), the IC50 in test [1] turned out to be 1320 nM; in test [2], 5510 nM. For the same compound, in the test with permeabilized HepG2 (setting [3]), the half-maximal effective concentration (EC50) stood at 946 nM.

Consider `C/C=C/C[C@@H](C)[C@@H](O)[C@H]1C(=O)N[C@@H](C(C)C)C(=O)N(C)[C@H](OCCN2CCOCC2)C(=O)N(C)[C@@H](CC(C)C)C(=O)N[C@@H](C(C)C)C(=O)N(C)[C@@H](CC(C)C)C(=O)N[C@@H](C)C(=O)N[C@H](C)C(=O)N(C)[C@@H](CC(C)C)C(=O)N(C)[C@@H](CC(C)C)C(=O)N(C)[C@@H](C(C)C)C(=O)N1C` [Compound 4] (cyclo(A[dA][NMeL][NMeL][NMeV][MeBmt]V[X1][NMeL]V[NMeL])), for which the IC50 in test [1] worked out at 1320 nM; in test [2], 4190 nM. For the same compound, the EC50 with permeabilized HepG2 (setting [3]) was 320 nM.

Take `C/C=C/C[C@@H](C)C(=O)[C@H]1C(=O)N[C@@H](C(C)C)C(=O)N(C)[C@H](OCCN(C)C)C(=O)N(C)[C@@H](CC(C)C)C(=O)N[C@@H](C(C)C)C(=O)N(C)[C@@H](CC(C)C)C(=O)N[C@@H](C)C(=O)N[C@H](C)C(=O)N(C)[C@@H](CC(C)C)C(=O)N(C)[C@@H](CC(C)C)C(=O)N(C)[C@@H](C(C)C)C(=O)N1C` [Compound 5] (cyclo(A[dA][NMeL][NMeL][NMeV][NMeBmt(3-oxo)]V[X2][NMeL]V[NMeL])): the Ki amounted to 23 nM at Human CypA and 17 nM on Human CypD. Besides, the IC50 in test [1] and in test [2] was > 10000 nM throughout. The EC50 in the test on permeabilized HepG2 (setting [3]) is > 10000 nM.

As for `C/C=C/C[C@@H](C)C(=O)[C@H]1C(=O)N[C@@H](C(C)C)C(=O)N(C)[C@H](OCCN2CCOCC2)C(=O)N(C)[C@@H](CC(C)C)C(=O)N[C@@H](C(C)C)C(=O)N(C)[C@@H](CC(C)C)C(=O)N[C@@H](C)C(=O)N[C@H](C)C(=O)N(C)[C@@H](CC(C)C)C(=O)N(C)[C@@H](CC(C)C)C(=O)N(C)[C@@H](C(C)C)C(=O)N1C` [Compound 6] (cyclo(A[dA][NMeL][NMeL][NMeV][NMeBmt(3-oxo)]V[X1][NMeL]V[NMeL])), the inhibition constant (Ki) is 90 nM on Human CypA and 150 nM at Human CypD. Moreover, the IC50 in test [1] and in test [2] was > 10000 nM in each case. Moreover, the EC50 with permeabilized HepG2 (setting [3]) is > 10000 nM.

Take `C/C=C/C[C@@H](C)[C@@H](O)[C@H]1C(=O)N[C@@H](CCC)C(=O)N(C)[C@H](OCCN(C)C)C(=O)N(C)[C@@H](CC(C)C)C(=O)N[C@@H](C(C)C)C(=O)N(C)[C@@H](CC(C)C)C(=O)N[C@@H](C)C(=O)N[C@H](C)C(=O)N(C)[C@@H](CC(C)C)C(=O)N(C)[C@@H](CC(C)C)C(=O)N(C)[C@@H](C(C)C)C(=O)N1C` [Compound 7] (cyclo(A[dA][NMeL][NMeL][NMeV][MeBmt][Nva][X2][NMeL]V[NMeL])): the IC50 came out at 789 nM in test [1] and 3220 nM in test [2]. Moreover, in the test on permeabilized HepG2 (setting [3]), the EC50 was found to be 2370 nM.

For the compound `C/C=C/C[C@@H](C)[C@@H](O)[C@H]1C(=O)N[C@@H](CCC)C(=O)N(C)[C@H](OCCN2CCOCC2)C(=O)N(C)[C@@H](CC(C)C)C(=O)N[C@@H](C(C)C)C(=O)N(C)[C@@H](CC(C)C)C(=O)N[C@@H](C)C(=O)N[C@H](C)C(=O)N(C)[C@@H](CC(C)C)C(=O)N(C)[C@@H](CC(C)C)C(=O)N(C)[C@@H](C(C)C)C(=O)N1C` [Compound 8] (cyclo(A[dA][NMeL][NMeL][NMeV][MeBmt][Nva][X1][NMeL]V[NMeL])), the IC50 came to 636 nM in test [1] and 7830 nM in test [2]. For the same compound, the EC50 with permeabilized HepG2 (setting [3]) was 1610 nM.

Take `C/C=C/C[C@@H](C)[C@@H](O)[C@H]1C(=O)N[C@@H](CC)C(=O)N(C)[C@H](OCC/N=C(\C)N(C)C)C(=O)N(C)[C@@H](CC(C)C)C(=O)N[C@@H](C(C)C)C(=O)N(C)[C@@H](CC(C)C)C(=O)N[C@@H](C)C(=O)N[C@H](C)C(=O)N(C)[C@@H](CC(C)C)C(=O)N(C)[C@@H](CC(C)C)C(=O)N(C)[C@@H](C(C)C)C(=O)N1C` [Compound 9]: the figures for the Ki at Human CypA and at Human CypD were 11 nM and 8.2 nM, respectively. Also, the values for the IC50 in test [1] and in test [2] were 2020 nM and 3880 nM, respectively. For the same compound, the EC50 with permeabilized HepG2 (setting [3]) was 468 nM.

On to `C/C=C/C[C@@H](C)[C@@H](O)[C@H]1C(=O)N[C@@H](CC)C(=O)N(C)[C@H](OCC/N=C/N(C)C)C(=O)N(C)[C@@H](CC(C)C)C(=O)N[C@@H](C(C)C)C(=O)N(C)[C@@H](CC(C)C)C(=O)N[C@@H](C)C(=O)N[C@H](C)C(=O)N(C)[C@@H](CC(C)C)C(=O)N(C)[C@@H](CC(C)C)C(=O)N(C)[C@@H](C(C)C)C(=O)N1C` [Compound 10], for which the Ki turned out to be 14 nM at Human CypA and 9.7 nM on Human CypD. Further, the half-maximal inhibitory concentration (IC50) in test [1] was 1830 nM; in test [2] it was 3710 nM. Besides, the EC50 with permeabilized HepG2 (setting [3]) is 3200 nM.

With `C/C=C/C[C@@H](C)[C@@H](O)[C@H]1C(=O)N[C@@H](CC)C(=O)N(C)[C@H](OCC(C)(C)N(C)C)C(=O)N(C)[C@@H](CC(C)C)C(=O)N[C@@H](C(C)C)C(=O)N(C)[C@@H](CC(C)C)C(=O)N[C@@H](C)C(=O)N[C@H](C)C(=O)N(C)[C@@H](CC(C)C)C(=O)N(C)[C@@H](CC(C)C)C(=O)N(C)[C@@H](C(C)C)C(=O)N1C` [Compound 11], the Ki on Human CypA was found to be 25 nM; on Human CypD it was 6 nM. Further, the results for the IC50 in test [1] and in test [2] were 616 nM and 1620 nM, respectively. Besides, the EC50 with permeabilized HepG2 (setting [3]) amounted to 3320 nM.

As for `C/C=C/C[C@@H](C)[C@@H](O)[C@H]1C(=O)N[C@@H](CC)C(=O)N(C)[C@H](OCC2(N(C)C)CC2)C(=O)N(C)[C@@H](CC(C)C)C(=O)N[C@@H](C(C)C)C(=O)N(C)[C@@H](CC(C)C)C(=O)N[C@@H](C)C(=O)N[C@H](C)C(=O)N(C)[C@@H](CC(C)C)C(=O)N(C)[C@@H](CC(C)C)C(=O)N(C)[C@@H](C(C)C)C(=O)N1C` [Compound 12], the figures for the inhibition constant Ki at Human CypA and at Human CypD were 6.5 nM and 6 nM, respectively.
